{"source": "patent US4247535A", "about": "“Modified cyclodextrin sulfate salts as complement inhibitors” (American Cyanamid Company, priority 1979, dated 1981)", "key": {"[1]": {"tested_on": "late components of human complement (C3-C9)", "test": "Test Code 035 (C3-C9 inhibitor), lysis of EAC 142", "format": "biochemical", "conditions": "activity in wells, twofold serial dilution assay; higher well number = higher activity", "source_text": "(§1) An active inhibitor protects C2 from C1 and C4; (ii) Test Code 035 (C3-C9 inhibitor)--This test determines the ability of the late components of human complement (C3-C9) to lyse EAC 142 in the presence of appropriate dilutions of the test compound. An active inhibitor protects EAC 142 from lysis by human C3-C9; (iii) Test Code 036 (C-Shunt inhibitor)--In this test human erythrocytes rendered fragile are lysed in autologous serum via the shunt pathway activated by cobra venom factor in the presence of appropriate dilutions of the test compound. Inhibition of the shunt pathway results in failure of lysis; (iv) Forssman Vasculitis Test--Here, the well known complement dependent lesion, Forssman vasculitis, is produced in guinea pigs by intradermal injection of rabbit anti-Forssman antiserum. […]"}, "human serum": {"tested_on": "human serum", "conditions": "both in vitro and in vivo, judged by reduction in total hemolytic complement activity; cited from earlier work"}, "whole complement": {"tested_on": "whole complement", "test": "Complement Level Reduction Test (in vivo, capillary tube assay of serum)", "conditions": "200 mg/kg i.v. or i.p.", "source_text": "An active inhibitor protects C2 from C1 and C4; (ii) Test Code 035 (C3-C9 inhibitor)--This test determines the ability of the late components of human complement (C3-C9) to lyse EAC 142 in the presence of appropriate dilutions of the test compound. An active inhibitor protects EAC 142 from lysis by human C3-C9; (iii) Test Code 036 (C-Shunt inhibitor)--In this test human erythrocytes rendered fragile are lysed in autologous serum via the shunt pathway activated by cobra venom factor in the presence of appropriate dilutions of the test compound. Inhibition of the shunt pathway results in failure of lysis; (iv) Forssman Vasculitis Test--Here, the well known complement dependent lesion, Forssman vasculitis, is produced in guinea pigs by intradermal injection of rabbit anti-Forssman antiserum. The lesion is measured in terms of diameter, edema and hemorrhage and the extent to which a combined index of these is inhibited by prior intraperitoneal injection of the test compound at 200 mg/kg is then reported, unless otherwise stated; (v) Forssman Shock Test--Lethal shock is produced in guinea pigs by an i.v. injection of anti-Forssman antiserum and the harmonic mean death time of treated guinea pigs is compared with that of simultaneous controls; (vi) Complement Level Reduction Test--In this test, the above dosed guinea pigs, or others, are bled for serum and the complement level is determined in undiluted serum by the capillary tube method of U.S. Pat. No. 3,876,376 and compared to undosed control guinea pigs; and (vii) Cap 50 Test--Here, appropriate amounts of the test compound are added to a pool of guinea pig serum in vitro, after which the undiluted serum capillary tube assay referred to above is run. The concentration of compound inhibiting 50% is reported.\nWith reference to Table I, guinea pigs weighing about 300 g were dosed intravenously (i.v.) or intraperitoneally (i.p.) with 200 mg/kg of the test compound dissolved in saline and adjusted to pH 7-8. […] Percent inhibition was calculated by comparison with simultaneous controls. […]"}, "shunt pathway": {"tested_on": "shunt pathway", "test": "Test Code 036 (C-Shunt inhibitor), lysis of fragile human erythrocytes in autologous serum, cobra venom factor", "format": "cell-based", "conditions": "activity in wells, twofold serial dilution assay; higher well number = higher activity", "source_text": "as §1"}, "activated human C1": {"target": "activated human C1 (Homo sapiens, UniProt P09871)", "sequence (P09871 16-688)": "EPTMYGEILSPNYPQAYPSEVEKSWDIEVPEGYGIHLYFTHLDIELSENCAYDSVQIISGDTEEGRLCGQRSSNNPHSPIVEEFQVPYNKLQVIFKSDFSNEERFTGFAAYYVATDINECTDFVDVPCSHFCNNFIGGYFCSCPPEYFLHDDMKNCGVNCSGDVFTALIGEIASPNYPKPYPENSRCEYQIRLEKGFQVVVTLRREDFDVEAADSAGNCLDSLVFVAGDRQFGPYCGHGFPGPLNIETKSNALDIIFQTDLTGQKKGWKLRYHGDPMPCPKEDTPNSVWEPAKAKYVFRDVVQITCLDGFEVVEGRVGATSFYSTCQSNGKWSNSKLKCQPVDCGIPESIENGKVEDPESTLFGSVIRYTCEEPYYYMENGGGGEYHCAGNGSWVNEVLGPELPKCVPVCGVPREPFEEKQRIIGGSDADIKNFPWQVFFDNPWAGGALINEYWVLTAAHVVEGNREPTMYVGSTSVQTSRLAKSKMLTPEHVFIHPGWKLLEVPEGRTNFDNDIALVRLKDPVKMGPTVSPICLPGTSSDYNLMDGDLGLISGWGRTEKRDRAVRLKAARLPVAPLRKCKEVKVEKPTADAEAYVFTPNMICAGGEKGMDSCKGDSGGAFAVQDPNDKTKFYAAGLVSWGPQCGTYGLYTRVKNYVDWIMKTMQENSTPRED", "sequence (P00736 18-705 partner)": "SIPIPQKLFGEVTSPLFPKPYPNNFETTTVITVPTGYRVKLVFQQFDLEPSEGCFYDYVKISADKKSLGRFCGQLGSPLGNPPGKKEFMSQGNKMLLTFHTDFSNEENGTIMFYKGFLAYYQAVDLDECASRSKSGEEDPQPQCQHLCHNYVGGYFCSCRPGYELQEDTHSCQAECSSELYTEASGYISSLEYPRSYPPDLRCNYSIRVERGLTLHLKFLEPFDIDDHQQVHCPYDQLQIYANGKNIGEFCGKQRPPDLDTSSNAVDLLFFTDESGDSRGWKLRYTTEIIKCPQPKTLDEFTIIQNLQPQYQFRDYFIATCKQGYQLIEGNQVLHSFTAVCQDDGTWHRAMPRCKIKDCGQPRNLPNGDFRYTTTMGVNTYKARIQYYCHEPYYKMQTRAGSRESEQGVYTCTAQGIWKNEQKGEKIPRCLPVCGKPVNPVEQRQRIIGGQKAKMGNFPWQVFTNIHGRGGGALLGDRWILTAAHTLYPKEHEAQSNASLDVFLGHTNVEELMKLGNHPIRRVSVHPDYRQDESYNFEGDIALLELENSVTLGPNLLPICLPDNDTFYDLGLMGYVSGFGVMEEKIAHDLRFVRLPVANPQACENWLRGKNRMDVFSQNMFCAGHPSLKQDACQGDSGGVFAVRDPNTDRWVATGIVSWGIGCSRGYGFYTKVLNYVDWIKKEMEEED", "sequence (P02745 23-245 partner)": "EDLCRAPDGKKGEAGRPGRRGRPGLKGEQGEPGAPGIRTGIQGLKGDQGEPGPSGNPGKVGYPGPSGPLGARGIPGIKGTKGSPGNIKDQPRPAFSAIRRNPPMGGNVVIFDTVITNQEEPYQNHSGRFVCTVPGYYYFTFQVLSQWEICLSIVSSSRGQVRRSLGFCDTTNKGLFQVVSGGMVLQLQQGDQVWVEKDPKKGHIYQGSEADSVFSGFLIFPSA", "sequence (P02746 28-253 partner)": "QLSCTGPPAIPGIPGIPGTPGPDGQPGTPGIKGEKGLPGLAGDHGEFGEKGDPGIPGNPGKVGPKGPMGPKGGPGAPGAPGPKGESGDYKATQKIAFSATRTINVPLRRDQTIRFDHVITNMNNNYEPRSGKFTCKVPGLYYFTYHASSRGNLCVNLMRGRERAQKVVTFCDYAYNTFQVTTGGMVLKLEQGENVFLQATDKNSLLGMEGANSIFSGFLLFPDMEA", "sequence (P02747 29-245 partner)": "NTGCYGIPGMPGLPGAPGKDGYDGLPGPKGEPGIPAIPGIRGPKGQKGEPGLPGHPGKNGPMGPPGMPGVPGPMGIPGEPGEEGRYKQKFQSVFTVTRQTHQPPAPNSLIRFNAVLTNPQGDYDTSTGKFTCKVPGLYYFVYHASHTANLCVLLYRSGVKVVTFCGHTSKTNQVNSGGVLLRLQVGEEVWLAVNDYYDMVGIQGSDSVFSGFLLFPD", "test": "Test Code 026 (C1 inhibitor)", "format": "biochemical", "conditions": "activity in wells, twofold serial dilution assay; higher well number = higher activity", "source_text": "as §1"}, "complement system": {"tested_on": "complement system", "conditions": "reported, British Journal of Experimental Pathology, 33, 327-339 (1952); cited from earlier work"}, "[2]": {"tested_on": "hereditary angioneurotic edema", "conditions": "reported in the literature; cited from earlier work"}}, "note": "Structures can show the parent of a compound that is named as a salt."}
{"molecule": "O=C(O)[C@H]1O[C@@H]2O[C@H]3[C@H](O)[C@@H](O)[C@@H](O[C@H]4[C@H](O)[C@@H](O)[C@@H](O[C@H]5[C@H](O)[C@@H](O)[C@@H](O[C@H]6[C@H](O)[C@@H](O)[C@@H](O[C@H]7[C@H](O)[C@@H](O)[C@@H](O[C@H]8[C@H](O)[C@@H](O)[C@@H](O[C@H]1[C@H](O)[C@H]2O)O[C@@H]8C(=O)O)O[C@@H]7C(=O)O)O[C@@H]6C(=O)O)O[C@@H]5C(=O)O)O[C@@H]4C(=O)O)O[C@@H]3C(=O)O", "note": "[5,5',5\",5'\",5\"\",5'\"\",5\"\"\"-Heptacarboxy-6,6',6\",6'\",6\"\",6'\"\",] [5,5',5\",5'\",5\"\",5'\"\",5\"\"\"-Heptacarboxy-6,6',6\",6'\",6\"\",6'\"\",6\"\"\"-heptademethyl-β-cyclodextrin]", "values": [{"measurement": "035 In Vitro Activity", "setting": "[1]", "value": "N"}]}
{"molecule": "pentosan-polysulfoester", "values": [{"measurement": "anticomplementary activity on human serum", "setting": "human serum", "value": "anticomplementary activity"}]}
{"molecule": "O=C(O)[C@H]1O[C@@H]2O[C@H]3[C@H](OS(=O)(=O)O)[C@@H](OS(=O)(=O)O)[C@@H](O[C@H]4[C@H](OS(=O)(=O)O)[C@@H](OS(=O)(=O)O)[C@@H](O[C@H]5[C@H](OS(=O)(=O)O)[C@@H](OS(=O)(=O)O)[C@@H](O[C@H]6[C@H](OS(=O)(=O)O)[C@@H](OS(=O)(=O)O)[C@@H](O[C@H]7[C@H](OS(=O)(=O)O)[C@@H](OS(=O)(=O)O)[C@@H](O[C@H]8[C@H](OS(=O)(=O)O)[C@@H](OS(=O)(=O)O)[C@@H](O[C@H]1[C@H](OS(=O)(=O)O)[C@H]2OS(=O)(=O)O)O[C@@H]8C(=O)O)O[C@@H]7C(=O)O)O[C@@H]6C(=O)O)O[C@@H]5C(=O)O)O[C@@H]4C(=O)O)O[C@@H]3C(=O)O", "note": "[5,5',5\",5'\",5\"\",5'\"\",5\"\"\"-Heptacarboxy-6,6',6\",6'\",6\"\",6'\"\",6\"\"\"-heptademethyl-β-cyclodextrin, heptasodium salt, tetradecakis (H-sulfate), tetradecasodium salt]", "values": [{"measurement": "In Vivo Activity (Guinea Pig) % Inhibition 30 min.", "setting": "whole complement; 30 min.", "value": -18, "unit": "%"}, {"measurement": "In Vivo Activity (Guinea Pig) % Inhibition 60 min.", "setting": "whole complement; 60 min.", "value": "+14%"}, {"measurement": "In Vivo Activity (Guinea Pig) % Inhibition 120 min.", "setting": "whole complement; 120 min.", "value": -40, "unit": "%"}, {"measurement": "036 In Vitro Activity", "setting": "shunt pathway", "value": "+3 wells"}, {"measurement": "035 In Vitro Activity", "setting": "[1]", "value": "+1 wells"}, {"measurement": "026 In Vitro Activity", "setting": "activated human C1", "value": "+7 wells"}]}
{"molecule": "heparin", "values": [{"measurement": "anticomplementary effect", "setting": "complement system", "value": "anticomplementary effect"}]}
{"molecule": "NCCCCCC(=O)O", "note": "[epsilon-aminocaproic acid]", "values": [{"measurement": "treatment of hereditary angioneurotic edema", "setting": "[2]", "value": "used with success"}]}
{"molecule": "NC[C@H]1CC[C@H](C(=O)O)CC1", "note": "[tranexamic acid]", "values": [{"measurement": "treatment of hereditary angioneurotic edema", "setting": "[2]", "value": "used with success"}]}
{"molecule": "Nc1ccc2cc(S(=O)(=O)O)cc(O)c2c1N=Nc1ccc(NC(=O)Nc2ccc(N=Nc3c(N)ccc4cc(S(=O)(=O)O)cc(O)c34)c(S(=O)(=O)O)c2)cc1S(=O)(=O)O", "note": "[chlorazol fast pink, 3,3'-ureylenebis-[6-(2-amino-8-hydroxy-6-sulfo-1-naphthylazo)]benzenesulfonic acid, tetrasodium salt]", "values": [{"measurement": "anticomplementary effect", "setting": "complement system", "value": "anticomplementary effect"}]}
